Experimental data reported in ChEMBL document CHEMBL3243923, “Linked Aryl Aryloxypropanolamines as a new class of lipid catabolis agents” (J Med Chem, 1978).
Active and inactive are the calls of the source. No cut-off for these calls is given here.

Tests used:
[1] = tested on: Mus musculus; assay: Antiobesity activity in mouse assessed as reduction in utero fat at 0.04% administered every day through diet for 10 days measured after day 10 relative to control; assay type: functional; set-up: scale not given: the % may be the effect or the level left
[2] = tested on: Mus musculus; assay: Antiobesity activity in mouse assessed as reduction in utero fat administered every day through diet for 10 days measured after day 10; assay type: functional; conditions: 240 h
[3] = (§1) Chronic toxicity in po dosed mouse assessed as mortality administered as qd for 21 days; assay type: organism-based; conditions: in vivo, read-out: MNTD
[4] = tested on: Mus musculus; assay: Toxicity in mouse assessed as liver hypertrophy at 1000 mg/kg, po administered for 21 days; assay type: organism-based; set-up: dose 1000 mg/kg, route oral; conditions: in vivo, 504 h
[5] = Therapeutic index, ratio of MNTD for chronic toxicity in po dosed mouse to ED25 for antiobesity activity in mouse assessed as reduction in utero fat; assay type: organism-based; conditions: in vivo, read-out: TI
[6] = tested on: Mus musculus; assay: Antiobesity activity in mouse assessed as reduction in utero fat at 0.02% administered every day through diet for 10 days measured after day 10 relative to control; assay type: functional
[7] = tested on: Mus musculus; assay: Antiobesity activity in mouse assessed as reduction in utero fat at 0.01% administered every day through diet for 10 days measured after day 10 relative to control; assay type: functional; set-up: scale not given: the % may be the effect or the level left
[8] = tested on: Mus musculus; assay: as §1; assay type: organism-based; conditions: in vivo, 504 h
[9] = tested on: Rattus norvegicus; assay: Antiobesity activity in rat assessed as reduction in food intake at 100 mg/kg, po qd administered for 5 days measured every day for 5 days relative to control; assay type: functional; set-up: scale not given: the % may be the effect or the level left
[10] = tested on: Rattus norvegicus; assay: Antiobesity activity in rat assessed as reduction in body weight at 100 mg/kg, po qd administered for 5 days measured on day 6 relative to control; assay type: functional; set-up: scale not given: the % may be the effect or the level left
[11] = tested on: Rattus norvegicus; assay: Antiobesity activity in rat assessed as reduction in utero fat at 100 mg/kg, po qd administered for 5 days measured on day 6 relative to control; assay type: functional; set-up: scale not given: the % may be the effect or the level left
[12] = tested on: Rattus norvegicus; assay: Toxicity in rat assessed as increase in adrenal weight at 100 mg/kg, po qd administered for 5 days measured on day 6 relative to control; assay type: organism-based; set-up: dose 100 mg/kg, route oral; conditions: in vivo, 120 h
[13] = tested on: Rattus norvegicus; assay: Toxicity in rat assessed as increase in liver weight at 100 mg/kg, po qd administered for 5 days measured on day 6 relative to control; assay type: organism-based; set-up: dose 100 mg/kg, route oral; conditions: in vivo, 120 h

Structure (SMILES) | Activity [1] | further results
Cc1cc(/C=C/c2ccccc2)cc(C)c1OCC(O)CNC(C)C (centres undefined) | 31% | –
CC(C)NCC(O)COc1ccc(C#Cc2ccccc2)cc1 (centres undefined) | 28% | –
CC(C)NCC(O)COc1c(C(C)(C)C)cc(Oc2ccc(Cl)cc2)cc1C(C)(C)C (centres undefined) | inactive | –
CC(C)NCC(O)COc1c(C(C)(C)C)cc(Oc2ccccc2)cc1C(C)(C)C.O=C(O)/C=C\C(=O)O (centres undefined) | 20% | ED25 [2]: 20 mg/kg; MTD at 504 h [3]: 100 mg/kg; Activity [4]: Non-toxic
CC(C)NCC(O)COc1c(C(C)(C)C)cc(C#Cc2ccccc2)cc1C(C)(C)C.O=C(O)/C=C\C(=O)O (centres undefined) | 25% | –
CC(C)NCC(O)COc1c(C(C)(C)C)cc(/C=C/c2ccc(C(C)(C)C)cc2)cc1C(C)(C)C (centres undefined) | inactive | –
CNCC(O)COc1c(C(C)(C)C)cc(/C=C/c2ccccc2)cc1C(C)(C)C.O.O=C(O)C(=O)O (centres undefined) | 44% | –
CC(C)NCC(O)COc1ccc(/C=C/c2ccncc2)cc1 (centres undefined) | 24% | –
Cc1ccccc1/C=C/c1cc(C(C)(C)C)c(OCC(O)CNC(C)C)c(C(C)(C)C)c1 (centres undefined) | 42% | –
CCC(C)c1cc(/C=C/c2ccccc2)cc(C(C)CC)c1OCC(O)CNC(C)C (centres undefined) | inactive | –
CC(C)NCC(O)COc1ccc(-c2ccccc2)cc1 (centres undefined) | 24% | –
CC(C)NCC(O)COc1c(C(C)(C)C)cc(/C=C/c2ccc(F)cc2)cc1C(C)(C)C (centres undefined) | inactive | –
CC(C)NCC(O)COc1c(C(C)(C)C)cc([S+]([O-])c2ccccc2)cc1C(C)(C)C (centres undefined) | inactive | –
CC(C)NCC(O)COc1ccc(-c2ccc(Cl)cc2)cc1.Cl (centres undefined) | 23% | ED25 [2]: 50 mg/kg; MTD at 504 h [3]: 25 mg/kg; selectivity ratio [5]: 0.5; Activity [4]: Non-toxic
CC(C)NCC(O)COc1c(C(C)(C)C)cc(/C=C/c2ccccc2)cc1C(C)(C)C (single isomer, unassigned; (+)) | inactive | –
CC(C)NCC(O)COc1c(C(C)(C)C)cc(Sc2ccccc2)cc1C(C)(C)C (centres undefined) | inactive | –
Cc1ccc(/C=C/c2cc(C(C)(C)C)c(OCC(O)CNC(C)C)c(C(C)(C)C)c2)cc1C (centres undefined) | inactive | –
CC(C)CNCC(O)COc1c(C(C)(C)C)cc(/C=C/c2ccccc2)cc1C(C)(C)C (centres undefined) | inactive | –
CC(C)NCC(O)COc1c(C(C)(C)C)cc(/C=C/c2ccc3c(c2)OCO3)cc1C(C)(C)C (centres undefined) | inactive | –
CC(C)NCC(O)COc1c(C(C)(C)C)cc(/C=C/c2ccccc2Cl)cc1C(C)(C)C (centres undefined) | inactive | –
CC(C)(C)c1cc(/C=C/c2ccccc2)cc(C(C)(C)C)c1OCC(O)CNC1CCCCC1 (centres undefined) | 24% | –
CCc1cc(/C=C/c2ccccc2C(F)(F)F)cc(CC)c1OCC(O)CNC(C)C (centres undefined) | 20% | –
CCCCN(CCCC)CCCNCC(O)COc1c(C(C)(C)C)cc(/C=C/c2ccccc2)cc1C(C)(C)C.O=C(O)/C=C\C(=O)O (centres undefined) | 25% | –

Structure (SMILES) | Activity [1] | further results
CC(C)NCC(O)COc1c(C(C)(C)C)cc(/C=C/c2ccccc2)cc1C(C)(C)C (centres undefined) [listing 1 of 2 here] | – | Activity [6]: inactive
CN(C)CCCNCC(O)COc1c(C(C)(C)C)cc(/C=C/c2ccccc2)cc1C(C)(C)C.Cl (centres undefined) | 45% | –
CC(C)NCC(O)COc1c(C(C)(C)C)cc(/C=C/c2ccc(Cl)c(Cl)c2)cc1C(C)(C)C (centres undefined) | inactive | –
CC(C)NCC(O)COc1c(C(C)C)cc(/C=C/c2ccccc2)cc1C(C)C (centres undefined) | 20% | –
CC(C)NCC(O)COc1c(C(C)(C)C)cc(/C=C/c2cccc(Cl)c2)cc1C(C)(C)C (centres undefined) | 21% | ED25 [2]: 72 mg/kg; MTD at 504 h [3]: 100 mg/kg; selectivity ratio [5]: 1.4; Activity [4]: Non-toxic
CCc1cc(/C=C/c2ccccc2)cc(CC)c1OCC(O)CNC(C)C (centres undefined) | – | Activity [6]: 20%; ED25 [2]: 45 mg/kg; MTD at 504 h [3]: 75 mg/kg; selectivity ratio [5]: 1.7; Activity [4]: Non-toxic
COc1ccc(/C=C/c2cc(C(C)(C)C)c(OCC(O)CNC(C)C)c(C(C)(C)C)c2)cc1Br (centres undefined) | inactive | –
CN(C)CCNCC(O)COc1c(C(C)(C)C)cc(/C=C/c2ccccc2)cc1C(C)(C)C (centres undefined) | inactive | –
CC(C)NCC(O)COc1c(C(C)(C)C)cc([S+]([O-])c2ccc(Cl)cc2)cc1C(C)(C)C.O=C(O)/C=C\C(=O)O (centres undefined) | 23% | ED25 [2]: 45 mg/kg; MTD at 504 h [3]: 75 mg/kg; Activity [4]: Non-toxic
COc1ccc(/C=C/c2cc(C(C)(C)C)c(OCC(O)CNC(C)(C)C)c(C(C)(C)C)c2)cc1Br (centres undefined) | inactive | –
CC(C)NCC(O)COc1c(C(C)(C)C)cc(CCc2ccccc2)cc1C(C)(C)C (centres undefined) | inactive | –
CCCCCCNCC(O)COc1c(C(C)(C)C)cc(/C=C/c2ccccc2)cc1C(C)(C)C (centres undefined) | inactive | –
COc1ccc(/C=C/c2cc(C(C)(C)C)c(OCC(O)CNC(C)C)c(C(C)(C)C)c2)cc1 (centres undefined) | – | Activity [6]: 26%; ED25 [2]: 20 mg/kg; MTD at 504 h [3]: 25 mg/kg; selectivity ratio [5]: 1.25; Activity [4]: Non-toxic
CC(C)NCC(O)COc1c(C(C)(C)C)cc(/C=C/c2ccccc2)cc1C(C)(C)C (centres undefined) [listing 2 of 2 here] | 39% | –
CCN(CC)CCCNCC(O)COc1c(C(C)(C)C)cc(/C=C/c2ccccc2)cc1C(C)(C)C (centres undefined) | inactive | –
Cc1cc(/C=C/c2ccccc2)cc(C(C)(C)C)c1OCC(O)CNC(C)C (centres undefined) | inactive | –
CCNCC(O)COc1c(C(C)(C)C)cc(/C=C/c2ccccc2)cc1C(C)(C)C (centres undefined) | 24% | –
CC(C)(C)c1cc(/C=C/c2ccccc2)cc(C(C)(C)C)c1OCC(O)CNC1CC1 (centres undefined) | inactive | –
CC(C)NCC(O)COc1c(C(C)(C)C)cc(/C=C/c2ccc(Cl)cc2)cc1C(C)(C)C (centres undefined) | 22% | ED25 [2]: 100 mg/kg; MTD at 504 h [3]: 100 mg/kg; selectivity ratio [5]: 1; Activity [4]: Non-toxic
CC(C)NCC(O)COc1c(C(C)(C)C)cc(/C=C/c2ccc3ccccc3c2)cc1C(C)(C)C (centres undefined) | inactive | –
CC(C)(C)NCC(O)COc1c(C(C)(C)C)cc(/C=C/c2ccccc2)cc1C(C)(C)C (centres undefined) | 20% | –
CC(C)NCC(O)COc1ccc(S(=O)(=O)c2ccc(Cl)cc2)cc1 (centres undefined) | inactive | –
CC(C)NCC(O)COc1c(C(C)(C)C)cc(Sc2ccc(Cl)cc2)cc1C(C)(C)C (centres undefined) | inactive | –

Structure (SMILES) | Activity [1] | further results
CC(C)NCC(O)COc1ccc(-c2cccs2)cc1 (centres undefined) | – | Activity [7]: 34%; Activity [8]: Toxic
CC(C)NCC(O)COc1c(C(C)(C)C)cc(S(=O)(=O)c2ccccc2)cc1C(C)(C)C (centres undefined) | inactive | –
CCC(C)NCC(O)COc1c(C(C)(C)C)cc(/C=C/c2ccccc2)cc1C(C)(C)C (centres undefined) | 23% | –
CC(C)(C)c1cc(/C=C/c2ccccc2)cc(C(C)(C)C)c1OCC(O)CNCc1ccccc1 (centres undefined) | inactive | –
CC(C)(C)c1cc(/C=C/c2ccccc2)cc(C(C)(C)C)c1OCC(O)CNCCO (centres undefined) | inactive | –
CC(C)(C)c1cc(/C=C/c2ccccc2)cc(C(C)(C)C)c1OCC(O)CNCCNC(=O)Nc1ccccc1 (centres undefined) | inactive | –
CC(C)NCC(O)COc1c(C(C)(C)C)cc(/C=C/c2ccc(O)cc2)cc1C(C)(C)C.O=C(O)/C=C\C(=O)O (centres undefined) | – | Activity [6]: 20%
CC(C)NCC(O)COc1c(C(C)(C)C)cc(/C=C/c2ccc([N+](=O)[O-])cc2)cc1C(C)(C)C (centres undefined) | 45% | –
CCCNCC(O)COc1c(C(C)(C)C)cc(/C=C/c2ccccc2)cc1C(C)(C)C (centres undefined) | inactive | –
CC(C)NCC(O)COc1ccc(Sc2ccc(Cl)cc2)cc1 (centres undefined) | 22% | –
CC(C)NCC(O)COc1c(C(C)(C)C)cc(/C=C/c2ccc(Br)cc2)cc1C(C)(C)C (centres undefined) | – | Activity [6]: 31%; ED25 [2]: 34 mg/kg; MTD at 504 h [3]: 150 mg/kg; selectivity ratio [5]: 4.3; Activity [4]: Non-toxic
CC(C)NCC(O)COc1c(C(C)(C)C)cc(/C=C/c2cccc3ccccc23)cc1C(C)(C)C (centres undefined) | inactive | –
CC(C)NCC(O)COc1c(C(C)(C)C)cc(S(=O)(=O)c2ccc(Cl)cc2)cc1C(C)(C)C (centres undefined) | inactive | –
CC(C)NCC(O)COc1c(C(C)(C)C)cc(-c2ccc(Cl)cc2)cc1C(C)(C)C (centres undefined) | 36% | ED25 [2]: 30 mg/kg; MTD at 504 h [3]: 100 mg/kg; selectivity ratio [5]: 3.6; Activity [4]: Non-toxic
CCc1cc(/C=C/c2ccccc2F)cc(CC)c1OCC(O)CNC(C)C (centres undefined) | 37% | –
CC(C)NCC(O)COc1c(C2CCCCC2)cc(/C=C/c2ccccc2)cc1C1CCCCC1.O=C(O)/C=C\C(=O)O (centres undefined) | 27% | ED25 [2]: 38 mg/kg; MTD at 504 h [3]: 100 mg/kg; Activity [4]: Non-toxic
COc1ccc(-c2cc(C(C)(C)C)c(OCC(O)CNC(C)C)c(C(C)(C)C)c2)cc1 (centres undefined) | inactive | –
CC(C)NCC(O)COc1ccc([S+]([O-])c2ccc(Cl)cc2)cc1 (centres undefined) | inactive | –
CC(C)NCC(O)COc1c(C(C)(C)C)cc(-c2ccccc2)cc1C(C)(C)C.Cl (centres undefined) | 28% | ED25 [2]: 20 mg/kg; MTD at 504 h [3]: 100 mg/kg; selectivity ratio [5]: 5; Activity [4]: Toxic; Activity [9]: 51%; Activity [10]: 4%; Activity [11]: 28%; Activity [12]: 16%; Activity [13]: 21%
Cc1ccc(/C=C/c2cc(C(C)(C)C)c(OCC(O)CNC(C)C)c(C(C)(C)C)c2)cc1 (centres undefined) | inactive | –
CCCCNCC(O)COc1c(C(C)(C)C)cc(/C=C/c2ccccc2)cc1C(C)(C)C (centres undefined) | 25% | –
